Assay results as given in PubChem BioAssay AID256 (DTP/NCI, 2004).
Toxic doses and inconclusive results are not listed. The calls were made as follows: active = survival T/C of 150% or more; inactive = T/C below 125% in these data.

System: CD2F1 mice, L1210 leukemia ip, survival T/C
Assay: NCI In Vivo Anticancer Drug Screen. Data for tumor model L1210 Leukemia (intraperitoneal) in CD2F1 (CDF1) mice
Conditions: higher = longer survival
Procedure, shortened: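 Compound-dosed mice with transplantable tumor versus matched vehicle controls; endpoint ratio T/C reported.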

[1] = endpoint: mean survival time, dose: 100.0 mg/kg/injection, schedule: Q04DX002 (ip), vehicle: saline with Tween-80
[2] = endpoint: mean survival time, dose: 200.0 mg/kg/injection, schedule: Q04DX002 (ip), vehicle: saline with Tween-80
[3] = endpoint: mean survival time, dose: 400.0 mg/kg/injection, schedule: Q04DX002 (ip), vehicle: saline with Tween-80
[4] = endpoint: mean survival time, dose: 100.0 mg/kg/injection, schedule: Q01DX009 (ip), vehicle: saline with Tween-80
[5] = endpoint: mean survival time, dose: 200.0 mg/kg/injection, schedule: Q01DX009 (ip), vehicle: saline with Tween-80
[6] = endpoint: mean survival time, dose: 100.0 mg/kg/injection, schedule: Q04DX003 (ip), vehicle: saline with Tween-80
[7] = endpoint: mean survival time, dose: 200.0 mg/kg/injection, schedule: Q04DX003 (ip), vehicle: saline with Tween-80
[8] = endpoint: mean survival time, dose: 400.0 mg/kg/injection, schedule: Q01DX009 (ip), vehicle: saline with Tween-80
[9] = endpoint: mean survival time, dose: 400.0 mg/kg/injection, schedule: Q04DX003 (ip), vehicle: saline with Tween-80
[10] = endpoint: mean survival time, dose: 100.0 mg/kg/injection, schedule: Q01DX001 (ip), vehicle: saline
[11] = endpoint: mean survival time, dose: 100.0 mg/kg/injection, schedule: Q04DX003 (ip), vehicle: saline
[12] = endpoint: mean survival time, dose: 200.0 mg/kg/injection, schedule: Q01DX001 (ip), vehicle: saline
[13] = endpoint: mean survival time, dose: 200.0 mg/kg/injection, schedule: Q04DX003 (ip), vehicle: saline
[14] = endpoint: mean survival time, dose: 400.0 mg/kg/injection, schedule: Q01DX001 (ip), vehicle: saline
[15] = endpoint: mean survival time, dose: 400.0 mg/kg/injection, schedule: Q04DX003 (ip), vehicle: saline

Measured: T/C

Cc1ccc(OCCOc2ccc(C(=O)O)cc2)cc1
inactive: endpoint: mean survival time, dose: 7.5 mg/kg/injection, schedule: Q01DX009 (ip), vehicle: Klucel (hydroxypropylcellulose) (HPC) 100 % of control | endpoint: mean survival time, dose: 15.0 mg/kg/injection, schedule: Q01DX009 (ip), vehicle: Klucel (hydroxypropylcellulose) (HPC) 98 % of control | endpoint: mean survival time, dose: 30.0 mg/kg/injection, schedule: Q01DX009 (ip), vehicle: Klucel (hydroxypropylcellulose) (HPC) 96 % of control

CCOC(=O)c1c(C)c2c(n1C)CC/C(=C\N1CCN(c3ccccc3)CC1)C2=O
inactive: [1] 93 % of control | [2] 89 % of control | [3] 86 % of control

O=C1CCC(=O)O1
inactive: [4] 95 % of control | [5] 102 % of control

Nc1nc(N)c(CCCOc2ccc([N+](=O)[O-])cc2Cl)c(N)n1
inactive: endpoint: mean survival time, dose: 100.0 mg/kg/injection, schedule: Q04DX002 (ip), vehicle: Klucel (hydroxypropylcellulose) (HPC) 90 % of control | endpoint: mean survival time, dose: 200.0 mg/kg/injection, schedule: Q04DX002 (ip), vehicle: Klucel (hydroxypropylcellulose) (HPC) 94 % of control | endpoint: mean survival time, dose: 400.0 mg/kg/injection, schedule: Q04DX002 (ip), vehicle: Klucel (hydroxypropylcellulose) (HPC) 90 % of control

COC(=O)NC1C(C)OC(OC2C/C=C(/C)C3C=CC4C(OC5CC(OC6CCC(OC7CC(O)C(OC8CCC(O)C(C)O8)C(C)O7)C(C)O6)C(OC(C)=O)C(C)O5)C(C)CC(C)C4C3(C)/C(O)=C3/C(=O)OC4(CC(C=O)=CC(O)C4/C=C\2C)C3=O)CC1(C)[N+](=O)[O-] (stereo not drawn)
inactive: endpoint: median survival time, dose: 1.25 mg/kg/injection, schedule: Q01DX009 (ip), vehicle: water 106 % of control | endpoint: median survival time, dose: 2.5 mg/kg/injection, schedule: Q01DX009 (ip), vehicle: water 106 % of control | endpoint: median survival time, dose: 5.0 mg/kg/injection, schedule: Q01DX009 (ip), vehicle: water 113 % of control | endpoint: median survival time, dose: 10.0 mg/kg/injection, schedule: Q01DX009 (ip), vehicle: water 121 % of control

CC(=O)CCc1ccc(O)cc1
inactive: [4] 94 % of control | [6] 97 % of control | [5] 93 % of control | [7] 92 % of control | [8] 94 % of control | [9] 92 % of control

COC(=O)C(NC(=O)Cc1ccccc1)C(C)(C)S (stereo not drawn)
inactive: [1] 102 % of control | [2] 102 % of control | [3] 102 % of control

CCCCNCCCNCCCNC(=O)c1csc(-c2csc(CCNC(=O)C(NC(=O)C(C)C(O)C(C)NC(=O)C(NC(=O)c3nc(C(CC(N)=O)NCC(N)C(N)=O)nc(N)c3C)C(OC3OC(CO)C(O)C(O)C3OC3OC(CO)C(O)C(OC(N)=O)C3O)c3cnc[nH]3)C(C)O)n2)n1 (stereo not drawn)
inactive: endpoint: mean survival time, dose: 2.5 mg/kg/injection, schedule: Q01DX009 (ip), vehicle: saline 101 % of control | endpoint: mean survival time, dose: 5.0 mg/kg/injection, schedule: Q01DX009 (ip), vehicle: saline 101 % of control | endpoint: mean survival time, dose: 10.0 mg/kg/injection, schedule: Q01DX009 (ip), vehicle: saline 114 % of control | endpoint: mean survival time, dose: 20.0 mg/kg/injection, schedule: Q01DX009 (ip), vehicle: saline 104 % of control | endpoint: mean survival time, dose: 40.0 mg/kg/injection, schedule: Q01DX009 (ip), vehicle: saline 104 % of control

FC(F)(F)Cc1cccc(C(F)(F)F)c1
inactive: [6] 109 % of control | [7] 108 % of control | [9] 100 % of control

CCCCCOc1ccc(Cl)cc1Cl
inactive: [1] 86 % of control | [2] 101 % of control | [3] 109 % of control

COCCOC(C)C(=O)C(O)S(=O)(=O)O (stereo not drawn)
inactive: endpoint: mean survival time, dose: 50.0 mg/kg/injection, schedule: Q01DX001 (ip), vehicle: saline 98 % of control | [10] 102 % of control | [11] 103 % of control | [12] 100 % of control | [13] 103 % of control | [14] 100 % of control | [15] 103 % of control

Nc1nc2ncc(CNc3ccc(C(=O)NC(CCC(=O)O)C(=O)O)cn3)nc2c(=O)[nH]1 (stereo not drawn)
inactive: endpoint: mean survival time, dose: 75.0 mg/kg/injection, schedule: Q01DX001 (ip), vehicle: other 102 % of control

COc1cc(N)nc(OC)n1
inactive: [6] 94 % of control | [7] 100 % of control | [9] 87 % of control

CCOC(=O)/C(C#N)=C1\CCCc2ccccc21
inactive: endpoint: mean survival time, dose: 100.0 mg/kg/injection, schedule: Q04DX003 (ip), vehicle: acetone 94 % of control | endpoint: mean survival time, dose: 200.0 mg/kg/injection, schedule: Q04DX003 (ip), vehicle: acetone 91 % of control

Cc1cccc(/C=C/c2cccc[n+]2[O-])[n+]1[O-]
inactive: [11] 103 % of control | [13] 96 % of control | [15] 96 % of control

C/C(=N\NS(=O)(=O)c1ccc(C)cc1)c1ccccc1
inactive: [1] 108 % of control | [2] 96 % of control | [3] 103 % of control

Nc1c(-c2ncc[nH]2)ncn1CC(O)C(O)C(O)CO (stereo not drawn)
inactive: endpoint: mean survival time, dose: 12.5 mg/kg/injection, schedule: Q01DX005 (ip), vehicle: saline with Tween-80 98 % of control | endpoint: mean survival time, dose: 25.0 mg/kg/injection, schedule: Q01DX005 (ip), vehicle: saline with Tween-80 101 % of control | endpoint: mean survival time, dose: 50.0 mg/kg/injection, schedule: Q01DX005 (ip), vehicle: saline with Tween-80 103 % of control | endpoint: mean survival time, dose: 100.0 mg/kg/injection, schedule: Q01DX005 (ip), vehicle: saline with Tween-80 92 % of control | endpoint: mean survival time, dose: 200.0 mg/kg/injection, schedule: Q01DX005 (ip), vehicle: saline with Tween-80 98 % of control

COC(=O)CCC([NH-])C(=O)O.COC(=O)CCC([NH-])C(=O)O.[NH-]C1CCCCC1[NH-].[Pt+4] (stereo not drawn)
inactive: endpoint: median survival time, dose: 6.25 mg/kg/injection, schedule: Q04DX003 (ip), vehicle: saline 100 % of control | endpoint: median survival time, dose: 12.5 mg/kg/injection, schedule: Q04DX003 (ip), vehicle: saline 96 % of control | endpoint: median survival time, dose: 25.0 mg/kg/injection, schedule: Q04DX003 (ip), vehicle: saline 97 % of control | endpoint: median survival time, dose: 50.0 mg/kg/injection, schedule: Q04DX003 (ip), vehicle: saline 108 % of control | endpoint: median survival time, dose: 100.0 mg/kg/injection, schedule: Q04DX003 (ip), vehicle: saline 110 % of control

COc1cc(C(=O)NC(=S)Nc2ccc3ccccc3c2)cc(OC)c1OC
inactive: [4] 90 % of control | [5] 94 % of control

N=C(N)SCc1cccc([N+](=O)[O-])c1
inactive: [1] 97 % of control

N#CCOc1cccc([N+](=O)[O-])c1
inactive: [6] 103 % of control | [7] 96 % of control

c1ccc2c(CC[n+]3cccc(C4OCCO4)c3)c[nH]c2c1
inactive: endpoint: mean survival time, dose: 12.5 mg/kg/injection, schedule: Q01DX009 (ip), vehicle: saline 100 % of control | endpoint: mean survival time, dose: 12.5 mg/kg/injection, schedule: Q04DX003 (ip), vehicle: saline 92 % of control | endpoint: mean survival time, dose: 25.0 mg/kg/injection, schedule: Q01DX009 (ip), vehicle: saline 105 % of control | endpoint: mean survival time, dose: 25.0 mg/kg/injection, schedule: Q04DX003 (ip), vehicle: saline 96 % of control | endpoint: mean survival time, dose: 50.0 mg/kg/injection, schedule: Q01DX009 (ip), vehicle: saline 100 % of control | endpoint: mean survival time, dose: 50.0 mg/kg/injection, schedule: Q04DX003 (ip), vehicle: saline 89 % of control

CCCCCOC(=N)CC(=O)C(C)(C)C
inactive: [10] 94 % of control | [12] 94 % of control | [14] 97 % of control

O=Cc1[nH]c(=S)[nH]c(=O)c1Cc1ccc(Cl)cc1
inactive: [6] 104 % of control

O=C1NC(=O)C(c2ccc(Cl)cc2)N1 (stereo not drawn)
inactive: [4] 93 % of control | [5] 105 % of control | [8] 104 % of control

O=c1c2ncn(C3OC(CO)C(O)C3O)c2nc[n]1[Hg][c]1ccccc1 (stereo not drawn)
inactive: endpoint: median survival time, dose: 0.79 mg/kg/injection, schedule: Q01DX005 (ip), vehicle: saline 103 % of control | endpoint: median survival time, dose: 1.56 mg/kg/injection, schedule: Q01DX005 (ip), vehicle: saline 111 % of control | endpoint: median survival time, dose: 3.12 mg/kg/injection, schedule: Q01DX005 (ip), vehicle: saline 115 % of control | endpoint: median survival time, dose: 6.25 mg/kg/injection, schedule: Q01DX005 (ip), vehicle: saline 105 % of control | endpoint: median survival time, dose: 12.5 mg/kg/injection, schedule: Q01DX005 (ip), vehicle: saline 112 % of control

C[CH2][Pb]([CH2]C)([CH2]C)[O]C(=O)c1ccc2ccccc2n1
inactive: endpoint: mean survival time, dose: 0.4 mg/kg/injection, schedule: Q01DX009 (ip), vehicle: saline 103 % of control | endpoint: mean survival time, dose: 0.8 mg/kg/injection, schedule: Q01DX009 (ip), vehicle: saline 103 % of control | endpoint: mean survival time, dose: 1.6 mg/kg/injection, schedule: Q01DX009 (ip), vehicle: saline 101 % of control

CC(C)(O)CCC(C)(C)O
inactive: [6] 106 % of control | [7] 101 % of control | [9] 103 % of control
